Test [1] concerns thermostable L-ribose isomerase derived from Raoultella ornithinolytica. The test can be described thus: L-ribose isomerase activity assay on various aldose substrates (cysteine/carbazole method). It counts as biochemical. Particulars: aldose as substrate; for relative activity to the activity on L-ribose: activity on L-ribose designated as 100%. How it is done:
The activity of the L-ribose isomerase of the invention can be assayed as follows. 0.05 ml of 0.05 M glycine-NaOH buffer (pH 9.0), 0.05 ml of 0.05 M L-ribose and the enzyme solution were mixed together to a total volume of 0.5 ml, for the enzyme reaction at 45° C., to generate L-ribulose, which is assayed by the cysteine/carbazole method. One unit of the enzyme activity is designated as the enzyme amount to generate 1 μmol of L-ribulose per one minute.
Using 50 mM L-ribose as a substrate, the enzyme reaction continued at 45° C. for 10 minutes, so that the amount of the generated ketose (L-ribulose) was assayed by the cysteine/carbazole method. As to the temperature stability, the enzyme activity was assayed after 10-min treatment at individual temperatures. As to the optimal pH conditions, the enzyme reaction was performed at 45° C. for 10 minutes in 50 mM acetate buffer (pH 2 to 6), 50 mM sodium phosphate buffer (pH 6 to 8), 50 mM Tris-HCl buffer (pH 8 to 9) or 50 mM glycine-sodium hydroxide buffer (pH 9 to 11), using 50 mM L-ribose as substrate, to assay the amount of a ketose (L-ribulose) generated thereafter by the cysteine/carbazole method (Table 2). The enzyme reaction was done at the composition shown in Table 2 at 45° C. for 10 minutes (Table 3), and the reaction was terminated by adding 50 μl of 10% TCA (trichloroacetic acid). […] After completion of the reaction, absorbance at 540 nm was measured with an ultraviolet/visible spectrophotometer V530 (JASCO Corporation). Additionally, the amount of the enzyme generating 1 μmol L-ribulose per one minute was designated as one unit.
According to the assay method of the activity, the activity of the enzyme was assayed, using various aldose types as substrates. The activities on various aldose types are shown in relative activities to the activity on L-ribose, which is designated as 100%.

Test [2] deals with thermostable L-ribose isomerase from Raoultella ornithinolytica. The test is described as follows: Confirmation of enzyme reaction product by HPLC. The format is biochemical. Particulars: 50 mM substrate, crude enzyme solution, 40° C., 24 hours. How it is done: A crude enzyme solution (0.65 U/ml) was recovered after culturing in a culture medium with 0.1% D-lyxose in 2% TSB, at 37° C. for 2 days and ultrasonication for extraction; 150 μl of the crude enzyme solution reacted with 50 mM of a substrate including individual ketose types such as L-ribose, D-fructose, D-tagatose and L-psicose at 40° C. for 24 hours. After reaction, the enzyme was inactivated under heating in hot water for 2 minutes, and centrifuged at 12,000 rpm for 5 minutes to recover the supernatant. Then, about 2 spoonfuls of a desalted resin (mixed and dried at a ratio of IRA411:SKIB=2:1) in a microspatula were added to the resulting supernatant, for mixing under inversion. After one hour, the solution was filtered through a 0.45-μm filter, for high-performance liquid chromatography (HPLC). As the column, Hitachi HPLC column GL-C611 (manufactured by Hitachi Chemical Industry Co., Ltd.) was used; as the detector, a differential refractive meter (L-7490 refractive index detector manufactured by Hitachi Hightech Co., Ltd.) was used. While the column was retained at 60° C., 10^−4 M sodium hydroxide solution as an eluent was used at a flow rate of 1.0 mL/min. The resulting signals were collected and analyzed with a data analysis software (SmartChrom, manufactured by KYA Technologies Co., Ltd.).

Structures are written as SMILES.

In the case of `O=C[C@H](O)[C@H](O)[C@H](O)[C@H](O)CO` [D-allose], the “activity of the enzyme for the substrate (in words)” value (“activity of the enzyme” for short) in test [1] is given as “never exerts any activities”.
As to `O=C[C@@H](O)[C@H](O)[C@H](O)[C@H](O)CO` [D-altrose], the “activity of the enzyme” value in test [1] is “never exerts any activities”.
For `O=C(CO)[C@@H](O)[C@H](O)[C@H](O)CO` [D-fructose], in test [2], the “product generated from the substrate” value is reported as “D-mannose is generated”.
Regarding `O=C[C@H](O)[C@@H](O)[C@H](O)[C@H](O)CO` [D-glucose], the “activity of the enzyme” value in test [1] was “never exerts any activities”.
In the case of `O=C[C@@H](O)[C@@H](O)[C@H](O)CO` [D-lyxose], in test [1], the “relative activity to the activity on L-ribose” value (shortened to “relative activity”) is listed as 15.3% and the “activity of the enzyme” value is “exerted activities”.
With `O=C[C@@H](O)[C@@H](O)[C@H](O)[C@H](O)CO` [D-mannose], the “activity of the enzyme” value in test [1] is given as “exerted activities”.
On to `O=C(CO)[C@@H](O)[C@@H](O)[C@H](O)CO` [D-tagatose], for which, in test [2], the “product generated from the substrate” value is listed as “D-tallose is generated”.
Take `O=C[C@@H](O)[C@@H](O)[C@@H](O)[C@H](O)CO` [D-tallose]: in test [1], the “relative activity” value worked out at 56.9% and the “activity of the enzyme” value was “exerted activities”.
Consider `O=C[C@@H](O)[C@@H](O)[C@@H](O)[C@@H](O)CO` [L-allose], for which, in test [1], the “relative activity” value is recorded as 2.2% and the “activity of the enzyme” value is on record as “exerted activities”.
Take `O=C(CO)[C@@H](O)[C@@H](O)[C@@H](O)CO` [L-psicose]: the “product generated from the substrate” value in test [2] is given as “L-allose is generated”.
In the case of `O=C[C@@H](O)[C@@H](O)[C@@H](O)CO` [L-ribose], in test [2], the “product generated from the substrate” value was “L-ribulose is generated”. Moreover, in test [1], the “relative activity” value stood at 100% and the “activity of the enzyme” value is “highest activity”.

The record behind these values is patent US8227232B2, “Thermostable L-ribose isomerase and method for producing same and use of same” (National University Corporation Kagawa Univeristy, priority 2006, dated 2012).
